Test results taken from patent publication US20120029027A1, “N-[(6-AZA-BICYCLO[3.2.1]OCT-5-YL)-ARYL-METHYL]-HETEROBENZAMIDE DERIVATIVES, PREPARATION THEREOF, AND THERAPEUTIC USE OF SAME” (SANOFI, priority 2009, published 2012).
Counter-ions that a name gives are not always drawn.

Experiments:
[1] = biological target: T1, native human transporter GlyT1 (Homo sapiens, UniProt P48067); experiment: Study of glycine transportation ([14C]glycine uptake) in SK-N-MC cells expressing the native human transporter GlyT1; type: cell-based; details: 10 μM [14C]glycine, 10 min at 37° C., concentration which reduces by 50% the specific uptake of glycine, read-out: CI50 (the source's name)
T1 construct: expressing the native human transporter GlyT1; endogenous in cells; host or cells: SK-N-MC (human neuroepithelial cells)
T1 sequence (P48067 1-706): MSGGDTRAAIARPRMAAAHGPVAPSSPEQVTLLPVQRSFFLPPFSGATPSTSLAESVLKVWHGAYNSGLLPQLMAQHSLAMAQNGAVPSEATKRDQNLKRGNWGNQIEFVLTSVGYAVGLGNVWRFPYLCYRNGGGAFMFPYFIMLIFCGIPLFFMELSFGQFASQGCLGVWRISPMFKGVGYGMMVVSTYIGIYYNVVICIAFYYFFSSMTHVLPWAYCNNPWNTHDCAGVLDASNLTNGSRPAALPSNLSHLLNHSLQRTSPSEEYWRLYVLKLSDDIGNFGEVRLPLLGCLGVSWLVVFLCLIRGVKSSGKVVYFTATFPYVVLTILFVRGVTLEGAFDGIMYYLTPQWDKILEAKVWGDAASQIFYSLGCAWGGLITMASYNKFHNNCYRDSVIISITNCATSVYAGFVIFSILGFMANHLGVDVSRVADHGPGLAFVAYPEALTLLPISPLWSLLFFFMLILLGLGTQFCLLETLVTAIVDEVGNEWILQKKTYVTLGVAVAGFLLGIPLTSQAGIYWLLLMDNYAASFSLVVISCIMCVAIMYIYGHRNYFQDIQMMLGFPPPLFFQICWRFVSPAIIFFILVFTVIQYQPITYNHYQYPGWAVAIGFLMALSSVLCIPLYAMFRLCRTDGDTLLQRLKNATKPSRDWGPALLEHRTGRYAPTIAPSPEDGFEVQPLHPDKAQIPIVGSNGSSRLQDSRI
Description: Study of Glycine Transportation in SK-N-MC Cells Expressing the Native Human Transporter GlyT1.
The uptake of [^14C]glycine is studied in SK-N-MC cells (human neuroepithelial cells) expressing the native human transporter GlyT1 by measuring the radioactivity incorporated in the presence or absence of the test compound. The cells are cultured as a monolayer for 48 hours in plates pretreated with 0.02% fibronectin. On the day of the experiment, the culture medium is removed and the cells are washed with Krebs-HEPES (4-(2-hydroxyethyl)piperazine-1-ethanesulphonic acid) buffer at pH 7.4. After preincubation for 10 minutes at 37° C. in the presence either of buffer (control batch) or of test compound at various concentrations or of 10 mM of glycine (determination of the non-specific uptake), 10 μM of [^14C]glycine (specific activity 112 mCi/mmol) are subsequently added. Incubation is continued for 10 min at 37° C. and the reaction is halted by washing twice with pH 7.4 Krebs-HEPES buffer. The radioactivity incorporated by the cells is then estimated after adding 100 μl of liquid scintillant and stirring for 1 h. Counting is carried out on a Microbeta Tri-Lux™ counter. The effectiveness of the compound is determined by the IC50, the concentration of the compound which reduces by 50% the specific uptake of glycine, defined by the difference in radioactivity incorporated by the control batch and the batch which received the 10 mM glycine.

| Compound | IC50 [1] | melting point |
| --- | --- | --- |
| O=C(NC(c1cccc(C(F)(F)F)c1)C12CCCC(CN1)C2)c1nccc(C(F)(F)F)c1Cl (racemic) [Compound 11, N-[(6-Azabicyclo[3.2.1]oct-5-yl)(3-trifluoromethylphenyl)methyl](3-chloro-4-trifluoromethyl)pyridine-2-carboxamide] | 170 nM |  |
| CSc1ncccc1C(=O)NC(c1cccc(C)c1)C12CCCC(CN1)C2 (racemic) (as salt: HCl) [Compound 10, N-[(-6-Azabicyclo[3.2.1]oct-5-yl)-m-tolylmethyl]-2-methylsulfanylnicotinamide] |  | 205 to 207 °C |
| CSc1ncccc1C(=O)NC(c1ccccc1)C12CCCC(CN1)C2 (racemic) [Compound 2, N-[(6-azabicyclo[3.2.1]oct-5-yl)phenylmethyl](2-methylsulphanyl)nicotinamide] | 140 nM |  |
| O=C(NC(c1ccccc1)C12CCCC(CN1)C2)c1cccc2c1ccn2Cc1ccccc1 (centres unmarked) [Compound 6, [(6-Azabicyclo[3.2.1]oct-5-yl)phenylmethyl](1-benzyl)-1H-indole-4-carboxamide] | 610 nM |  |
| O=C(NC(c1ccccc1)C12CCCC(CN1)C2)c1cc(Cl)sc1Cl (racemic) [Compound 1, N-[(6-Azabicyclo[3.2.1]oct-5-yl)phenylmethyl](2,5-dichloro)thiophene-3-carboxamide] |  | 95 to 97 °C |
| Cn1cnc(C(=O)NC(c2ccccc2)C23CCCC(CN2)C3)c1 (racemic) [Compound 7, N-[(6-Azabicyclo[3.2.1]oct-5-yl)phenylmethyl](1-methyl)-1H-imidazole-4-carboxamide] |  | 150 to 152 °C |
| O=C(NC(c1ccccc1)C12CCCC(CN1)C2)c1nccc(C(F)(F)F)c1Cl (racemic) (as salt: HCl) [Compound 3, N-[(6-Azabicyclo[3.2.1]oct-5-yl)phenylmethyl](3-chloro-4-trifluoromethyl)pyridine-2-carboxamide] |  | 158 to 160 °C |
| O=C(NC(c1ccccc1)C12CCCC(CN1)C2)c1nccc(C(F)(F)F)c1Cl (racemic) [Compound 3, N-[(6-Azabicyclo[3.2.1]oct-5-yl)phenylmethyl](3-chloro-4-trifluoromethyl)pyridine-2-carboxamide] | 220 nM |  |
| CSc1ncccc1C(=O)NC(c1ccc(F)cc1)C12CCCC(CN1)C2 (racemic) (as salt: HCl) [Compound 8, N-[(6-Azabicyclo[3.2.1]oct-5-yl)(4-fluorophenyl)methyl]-2-methylsulfanyl-nicotinamide] |  | 234 to 236 °C |
| O=C(NC(c1cccc(C(F)(F)F)c1)C12CCCC(CN1)C2)c1nccc(C(F)(F)F)c1Cl (racemic) (as salt: HCl) [Compound 11, N-[(6-Azabicyclo[3.2.1]oct-5-yl)(3-trifluoromethylphenyl)methyl](3-chloro-4-trifluoromethyl)pyridine-2-carboxamide] |  | 250.4 to 251.4 °C |
| CSc1ncccc1C(=O)NC(c1ccc(F)cc1)C12CCCC(CN1)C2 (racemic) [Compound 8, N-[(6-Azabicyclo[3.2.1]oct-5-yl)(4-fluorophenyl)methyl]-2-methylsulfanyl-nicotinamide] | 130 nM |  |
